From patent US20230277533A1, “THERAPEUTIC COMBINATIONS COMPRISING UBIQUITIN-SPECIFIC-PROCESSING PROTEASE 1 (USP1) INHIBITORS AND POLY (ADP-RIBOSE) POLYMERASE (PARP) INHIBITORS” (KSQ Therapeutics, Inc., priority 2020, published 2023)

What was measured:
Assay in all cases: Colony formation (CFU) assay
Format in all cases: cell-based
[1] = system: HCC202; settings: HCC202, breast
Summary of the method: (§1)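 Absorbance at 565 nm of crystal violet extracted with 10% acetic acid measures colony mass. Cells grow ~14 days in six-well plates, exposed from day 8 to USP1 inhibitor, niraparib, olaparib or DMSO.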

[2] = system: HEC1B; settings: Homo sapiens, HEC-1B, uterus
Summary of the method: as §1

[3] = system: VMRCRCZ; settings: kidney
Summary of the method: as §1

[4] = system: SKOV3; settings: Homo sapiens, SK-OV-3; SKOV3, ovary
Summary of the method: as §1

[5] = system: A2058; settings: Homo sapiens; A2058, skin
Summary of the method: as §1

[6] = system: NCIH1373; settings: Homo sapiens, NCI-H1373; NCIH1373, lung
Summary of the method: as §1

[7] = system: BICR78; settings: BICR78, head and neck
Summary of the method: as §1

[8] = system: UBLC1; settings: UBLC1, bladder
Summary of the method: as §1

[9] = system: SKOV3_OR1a1null; settings: ovary
Summary of the method: as §1

[10] = system: 22RV1; settings: Homo sapiens; 22RV1, prostate
Summary of the method: as §1

[11] = system: SKMEL24; settings: Homo sapiens, SK-MEL-24; SKMEL24, skin
Summary of the method: as §1

[12] = system: CAOV3; settings: Homo sapiens, Caov-3; CAOV3, ovary
Summary of the method: as §1

[13] = system: OVMANA; settings: ovary
Summary of the method: as §1

[14] = system: PK45H; settings: pancreas
Summary of the method: as §1

[15] = system: HS695T; settings: Homo sapiens, Hs 695T, skin
Summary of the method: as §1

[16] = system: HBCx2; settings: HBCx2, breast
Summary of the method: as §1

[17] = system: SNU213; settings: SNU213, pancreas
Summary of the method: as §1

[18] = system: SNGM; settings: uterus
Summary of the method: as §1

[19] = system: HS870T; settings: bone
Summary of the method: as §1

[20] = system: 59M; settings: ovary
Summary of the method: as §1

[21] = system: SKOV3_ATMnull; settings: ovary
Summary of the method: as §1

[22] = system: SNU119; settings: SNU119, ovary
Summary of the method: as §1

[23] = system: SNU489; settings: SNU489, nervous system
Summary of the method: as §1

[24] = system: T174; settings: T174, breast
Summary of the method: as §1

[25] = system: RCM1; settings: Homo sapiens, RCM-1; RCM1, colon
Summary of the method: as §1

[26] = system: HCC1569; settings: Homo sapiens; HCC1569, breast
Summary of the method: as §1

[27] = system: HT1080; settings: Homo sapiens, HT-1080; HT1080, soft tissue
Summary of the method: as §1

[28] = system: PECAPJ49; settings: PECAPJ49, head and neck
Summary of the method: as §1

[29] = system: HS821T; settings: bone
Summary of the method: as §1

[30] = system: NCIH838; settings: Homo sapiens, NCI-H838; NCIH838, lung
Summary of the method: as §1

[31] = system: OVK18; settings: OVK18, ovary
Summary of the method: as §1

[32] = system: HBCx3; settings: HBCx3, breast
Summary of the method: as §1

[33] = system: FADU; settings: Homo sapiens, head and neck
Summary of the method: as §1

[34] = system: SCC15; settings: Homo sapiens, SCC-15; SCC15, head and neck
Summary of the method: as §1

[35] = system: NCIH1915; settings: NCI-H1915; NCIH1915, lung
Summary of the method: as §1

[36] = system: SUIT2; settings: SUIT-2; SUIT2, pancreas
Summary of the method: as §1

[37] = system: BICR56; settings: BICR56, head and neck
Summary of the method: as §1

[38] = system: HS934T; settings: melanoma
Summary of the method: as §1

[39] = system: NCIH1693; settings: Homo sapiens, NCI-H1693; NCIH1693, lung
Summary of the method: as §1

| Structure (SMILES) | IC50 [1] | IC50 [2] | IC50 [3] | IC50 [4] | IC50 [5] | IC50 [6] | IC50 [7] | IC50 [8] | IC50 [9] | IC50 [10] | IC50 [11] | IC50 [12] | IC50 [13] | IC50 [14] | IC50 [15] | IC50 [16] | IC50 [17] | IC50 [18] | IC50 [19] | IC50 [20] | also measured |
| --- | --- | --- | --- | --- | --- | --- | --- | --- | --- | --- | --- | --- | --- | --- | --- | --- | --- | --- | --- | --- | --- |
| NC(=O)c1cccc2cn(-c3ccc([C@@H]4CCCNC4)cc3)nc12 [Niraparib, niraparib, reference compound] | 103 nM | > 300 nM | > 300 nM | > 300 nM | 58.4 nM | > 300 nM | > 300 nM | > 300 nM | > 300 nM | > 300 nM | > 300 nM | 241 nM | > 300 nM | > 300 nM | 36.9 nM | > 300 nM | > 300 nM | > 300 nM | > 300 nM | 63.4 nM | IC50 [21]: > 300 nM; IC50 [22]: 39 nM; IC50 [23]: > 300 nM; IC50 [24]: > 300 nM; IC50 [25]: > 300 nM; IC50 [26]: 97.3 nM; IC50 [27]: > 300 nM; IC50 [28]: > 300 nM; IC50 [29]: > 300 nM; IC50 [30]: > 300 nM; IC50 [31]: > 300 nM; IC50 [32]: 20.8 nM; IC50 [33]: > 300 nM; IC50 [34]: > 300 nM; IC50 [35]: 66.2 nM; IC50 [36]: > 300 nM; IC50 [37]: > 300 nM; IC50 [38]: > 300 nM; IC50 [39]: > 300 nM |
| COc1ncnc(C2CC2)c1-c1ncc2cnn(Cc3ccc(-c4nc(C(F)(F)F)cn4C)cc3)c2n1 [Formula II, 6-(4-cyclopropyl-6-methoxypyrimidin-5-yl)-1-(4-(1-methyl-4-(trifluoromethyl)-1H-imidazol-2-yl)benzyl)-1H-pyrazolo[3,4-d]pyrimidine] | > 300 nM | > 300 nM | > 300 nM | > 300 nM | > 300 nM | > 300 nM | > 300 nM | > 300 nM | > 300 nM | > 300 nM | > 300 nM | 27.8 nM | > 300 nM | 294 nM | > 300 nM | > 300 nM | > 300 nM | > 300 nM | > 300 nM | 34.9 nM | IC50 [21]: > 300 nM; IC50 [22]: > 300 nM; IC50 [23]: > 300 nM; IC50 [24]: > 300 nM; IC50 [25]: > 300 nM; IC50 [26]: > 300 nM; IC50 [27]: > 300 nM; IC50 [28]: > 300 nM; IC50 [29]: > 300 nM; IC50 [30]: > 300 nM; IC50 [31]: > 300 nM; IC50 [32]: > 300 nM; IC50 [33]: > 300 nM; IC50 [34]: 28 nM; IC50 [35]: 52.2 nM; IC50 [36]: > 300 nM; IC50 [37]: > 300 nM; IC50 [38]: > 300 nM; IC50 [39]: 12.7 nM |
